Test results published in PubChem BioAssay AID1259352.

system: C. elegans N2 L1 growth, INVAPP movement imaging, 5 d; assay: C. elegans larval growth inhibition, dose response, whole organism, N2 L1 worms, INVAPP movement imaging (AID 1259352)

Row | Compound | EC50 [µM]
1 | COCCNc1nc(NCCOc2ccccc2Cl)c2sccc2n1 | 87
2 | CNc1nc(NCCOc2ccccc2)c2sccc2n1 | 82
3 | CNc1nc(NCCOc2ccccc2Cl)c2sccc2n1 | 11
4 | COc1ccccc1CNc1nc(NCCOc2ccccc2Cl)c2sccc2n1 | 7
